According to patent US6362369B1, “Phthalic acid diamide derivatives fluorine-containing aniline compounds as starting material, agricultural and horticultural insecticides, and a method for application of the insecticides” (Nihon Nohyaku Co., Ltd., priority 1997, dated 2002):

Assays:
Assay type in all cases: in vivo
[1] = test system: rice leafroller (Cnaphalocrocis medinalis); test: Insecticidal effect on rice leafroller (Test Example 3); conditions: 500 ppm, 25° C., humidity 70%; for Insecticidal effect, Test Example 3: rice lamina immersed; for Insecticidal effect, Test Example 3 / Insecticidal effect on rice leafroller (Test Example 3), judged grade: four days after inoculation; for Insecticidal effect (Test Example 3), judged from mortality / Insecticidal effect on rice leafroller (Test Example 3), judged grade: rice lamina dip; for Insecticidal effect (Test Example 3), judged from mortality: 4 days after inoculation; for Insecticidal effect on rice leafroller (Test Example 3), judged grade: third-instar larvae
Procedure, shortened: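 Insecticidal effect is judged by a predefined criterion from dead/alive counts four days after infesting air-dried lamina with third-instar larvae, kept on moistened filter paper at 25° C, 70% humidity.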

[2] = test system: common cutworm (Spodoptera Litura); test: Insecticidal effect on common cutworm (Test Example 2); conditions: 500 ppm, 25° C.; for Insecticidal effect, Test Example 2: cabbage leaf immersed; for Insecticidal effect, Test Example 2 / Insecticidal effect on common cutworm (Test Example 2), judged grade: eight days after inoculation; for Insecticidal effect (Test Example 2), judged from mortality / Insecticidal effect on common cutworm (Test Example 2), judged grade: cabbage leaf dip; for Insecticidal effect (Test Example 2), judged from mortality: 8 days after inoculation; for Insecticidal effect on common cutworm (Test Example 2), judged grade: second-instar larvae
Procedure, shortened: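 Air-dried treated material was placed in a closed dish with second-instar larvae and held at 25° C. Dead and live insects were counted eight days after inoculation, and mortality was calculated and scored against a fixed insecticidal-effect criterion. Three replicate groups of 10 insects were used.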

[3] = test system: diamondback moth (Plutella xylostella); test: Insecticidal effect on diamondback moth (Test Example 1); conditions: for Insecticidal effect, Test Example 1 / Insecticidal effect (Test Example 1), judged from mortality: diamondback moth; for Insecticidal effect (Test Example 1), judged from mortality: judged by the criterion of Test Example 1; for Insecticidal effect on diamondback moth (Test Example 1), judged grade: mortality judged according to the criterion shown in Test Example 1
Procedure, shortened: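 Triplicate groups of 10 insects were scored: six days after immersion of oviposited Chinese cabbage seedlings and holding at 25 °C post air-drying, hatched larvae were counted. Mortality derived from these counts and insecticidal effect judged by a set criterion.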

[4] = rice leafroller third-instar larvae
[5] = common cutworm second-instar larvae
[6] = mortality judged by criterion of Test Example 1
[7] = third-instar larvae of rice leafroller
[8] = second-instar larvae of common cutworm
[9] = judged by the mortality criterion of Test Example 1

## CCN(CC)C(=O)c1c(I)cccc1C(=O)Nc1ccc(SC(F)(F)F)cc1 [compound 1128]
[1]; [4]
  Insecticidal effect, Test Example 3: A (100)
[2]; [5]
  Insecticidal effect, Test Example 2: A (100)
[3]; [6]
  Insecticidal effect, Test Example 1: A (100)

## CCOCCN(CCOCC)C(=O)c1c(I)cccc1C(=O)Nc1ccc(C(F)(F)C(F)(F)F)cc1C [compound 1046]
[1]; [4]
  Insecticidal effect, Test Example 3: A (100)
[2]; [5]
  Insecticidal effect, Test Example 2: A (100)
[3]; [6]
  Insecticidal effect, Test Example 1: A (100)

## Cc1cc(C(F)(F)C(F)(F)C(F)(F)F)ccc1NC(=O)c1cccc(Cl)c1C(=O)NC(C)C [compound 130]
[1]; [7]
  Insecticidal effect, Test Example 3: A (100)
[2]; [8]
  Insecticidal effect, Test Example 2: A (100)
[3]; [9]
  Insecticidal effect, Test Example 1: A (100)

## Cc1cc(C(F)(F)C(F)(F)F)ccc1NC(=O)c1cccc(Cl)c1C(=O)NC(C)(C)Cc1ccccc1 [compound 1418]
[1]; [4]
  Insecticidal effect, Test Example 3: A (100)
[2]; [5]
  Insecticidal effect, Test Example 2: A (100)
[3]; [6]
  Insecticidal effect, Test Example 1: A (100)

## C=CCNC(=O)c1c(I)cccc1C(=O)Nc1ccc(C(F)(F)C(F)(F)F)cc1C [compound 987]
[1]; [4]
  Insecticidal effect, Test Example 3: A (100)
[2]; [5]
  Insecticidal effect, Test Example 2: A (100)
[3]; [6]
  Insecticidal effect, Test Example 1: A (100)

## CCc1cc(C(F)(F)C(F)(F)F)ccc1NC(=O)c1cccc(I)c1C(=O)NC(C)C [compound 1017]
[1]; [4]
  Insecticidal effect, Test Example 3: A (100)
[2]; [5]
  Insecticidal effect, Test Example 2: A (100)
[3]; [6]
  Insecticidal effect, Test Example 1: A (100)

## C=CCN(CC=C)C(=O)c1c(I)cccc1C(=O)Nc1ccc(C(F)(F)C(F)(F)F)cc1C [compound 1045]
[1]; [4]
  Insecticidal effect, Test Example 3: A (100)
[2]; [5]
  Insecticidal effect, Test Example 2: A (100)
[3]; [6]
  Insecticidal effect, Test Example 1: A (100)

## Cc1cc(OC(F)F)c(Cl)cc1NC(=O)c1cccc(Cl)c1C(=O)NC(C)C [compound 150]
[1]; [7]
  Insecticidal effect, Test Example 3: A (100)
[2]; [8]
  Insecticidal effect, Test Example 2: A (100)
[3]; [9]
  Insecticidal effect, Test Example 1: A (100)

## Cc1cc(C(F)(F)C(F)(F)F)ccc1NC(=O)c1cccc(I)c1C(=O)N(C)C(C)C [compound 1042]
[1]; [4]
  Insecticidal effect, Test Example 3: A (100)
[2]; [5]
  Insecticidal effect, Test Example 2: A (100)
[3]; [6]
  Insecticidal effect, Test Example 1: A (100)

## Cc1cc(OC(F)(F)F)ccc1NC(=O)c1cccc(Cl)c1C(=O)NC(C)(C)C [compound 944]
[1]; [4]
  Insecticidal effect, Test Example 3: A (100)
[2]; [5]
  Insecticidal effect, Test Example 2: A (100)
[3]; [6]
  Insecticidal effect, Test Example 1: A (100)

## CCN(CC)C(=O)c1c(I)cccc1C(=O)Nc1ccc(OC(F)(F)C(F)F)cc1C [compound 1556]
[1]; [7]
  Insecticidal effect (Test Example 3), judged from mortality: A (100)
[2]; [8]
  Insecticidal effect (Test Example 2), judged from mortality: A (100)
[3]
  Insecticidal effect (Test Example 1), judged from mortality: A (100)

## Cc1cc(C(F)(F)C(F)(F)F)ccc1NC(=O)c1cccc(I)c1C(=O)NC(C)CO (stereo not drawn) [compound 1300]
[1]; [4]
  Insecticidal effect, Test Example 3: A (100)
[2]; [5]
  Insecticidal effect, Test Example 2: A (100)
[3]; [6]
  Insecticidal effect, Test Example 1: A (100)

## Cc1c(F)cccc1NC(=O)c1c(F)cccc1C(=O)NC(C)C [compound 548]
[1]
  Insecticidal effect on rice leafroller (Test Example 3), judged grade: A (100)
[2]
  Insecticidal effect on common cutworm (Test Example 2), judged grade: A (100)
[3]
  Insecticidal effect on diamondback moth (Test Example 1), judged grade: A (100)

## Cc1cc(C(F)(F)C(F)(F)F)ccc1NC(=O)c1cccc(F)c1C(=O)NC(C)(C)C [compound 1505]
[1]; [7]
  Insecticidal effect (Test Example 3), judged from mortality: A (100)
[2]; [8]
  Insecticidal effect (Test Example 2), judged from mortality: A (100)
[3]
  Insecticidal effect (Test Example 1), judged from mortality: A (100)

## Cc1cc(OC(F)(F)Br)ccc1NC(=O)c1cccc(I)c1C(=O)NC(C)C [compound 389]
[1]; [7]
  Insecticidal effect, Test Example 3: A (100)
[2]; [8]
  Insecticidal effect, Test Example 2: A (100)
[3]; [9]
  Insecticidal effect, Test Example 1: A (100)

## CC(C)NC(=O)c1c(C(=O)Nc2ccc(C(F)(F)F)cc2)cccc1[N+](=O)[O-] [compound 606]
[1]
  Insecticidal effect on rice leafroller (Test Example 3), judged grade: A (100)
[2]
  Insecticidal effect on common cutworm (Test Example 2), judged grade: D (79-50)
[3]
  Insecticidal effect on diamondback moth (Test Example 1), judged grade: A (100)

## Cc1ccc(F)cc1NC(=O)c1cccc([N+](=O)[O-])c1C(=O)NC(C)C [compound 676]
[1]
  Insecticidal effect on rice leafroller (Test Example 3), judged grade: A (100)
[2]
  Insecticidal effect on common cutworm (Test Example 2), judged grade: C (89-80)
[3]
  Insecticidal effect on diamondback moth (Test Example 1), judged grade: A (100)

## CCCN(CC)C(=O)c1c(I)cccc1C(=O)Nc1ccc(OC(F)(F)F)cc1C [compound 1574]
[1]; [7]
  Insecticidal effect (Test Example 3), judged from mortality: A (100)
[2]; [8]
  Insecticidal effect (Test Example 2), judged from mortality: A (100)
[3]
  Insecticidal effect (Test Example 1), judged from mortality: A (100)

## Cc1c(Cl)cccc1NC(=O)c1cccc(I)c1C(=O)NC(C)C [compound 361]
[1]; [7]
  Insecticidal effect, Test Example 3: A (100)
[2]; [8]
  Insecticidal effect, Test Example 2: A (100)
[3]; [9]
  Insecticidal effect, Test Example 1: A (100)

## COc1cccc(C(=O)Nc2ccc(OC(F)(F)F)cc2)c1C(=O)NC(C)C [compound 767]
[1]
  Insecticidal effect on rice leafroller (Test Example 3), judged grade: A (100)
[2]
  Insecticidal effect on common cutworm (Test Example 2), judged grade: C (89-80)
[3]
  Insecticidal effect on diamondback moth (Test Example 1), judged grade: A (100)

## CC(C)NC(=O)c1c(Br)cccc1C(=O)Nc1ccc(OC(F)(F)F)cc1Cl [compound 286]
[1]; [7]
  Insecticidal effect, Test Example 3: A (100)
[2]; [8]
  Insecticidal effect, Test Example 2: A (100)
[3]; [9]
  Insecticidal effect, Test Example 1: A (100)

## CC(C)NC(=O)c1c(I)cccc1C(=O)Nc1ccc(C(F)(F)C(F)(F)C(F)(F)F)cc1F [compound 1474]
[1]; [7]
  Insecticidal effect (Test Example 3), judged from mortality: A (100)
[2]; [8]
  Insecticidal effect (Test Example 2), judged from mortality: A (100)
[3]
  Insecticidal effect (Test Example 1), judged from mortality: A (100)

## Cc1cc(C(F)(F)C(F)(F)F)ccc1NC(=O)c1cccc(Cl)c1C(=O)NC(C)(C)C#Cc1ccc(Br)cn1 [compound 1649]
[1]; [7]
  Insecticidal effect (Test Example 3), judged from mortality: A (100)
[2]; [8]
  Insecticidal effect (Test Example 2), judged from mortality: A (100)
[3]
  Insecticidal effect (Test Example 1), judged from mortality: A (100)

## Cc1cc(OC(F)(F)C(F)(Cl)Cl)ccc1NC(=O)c1cccc(I)c1C(=O)NC(C)C [compound 381]
[1]; [7]
  Insecticidal effect, Test Example 3: A (100)
[2]; [8]
  Insecticidal effect, Test Example 2: A (100)
[3]; [9]
  Insecticidal effect, Test Example 1: A (100)

## Cc1cc(OCC(F)OC(F)(F)F)ccc1NC(=O)c1cccc([N+](=O)[O-])c1C(=O)NC(C)C (stereo not drawn) [compound 701]
[1]
  Insecticidal effect on rice leafroller (Test Example 3), judged grade: A (100)
[2]
  Insecticidal effect on common cutworm (Test Example 2), judged grade: A (100)
[3]
  Insecticidal effect on diamondback moth (Test Example 1), judged grade: A (100)

## CCN(CC)C(=O)c1c(Cl)cccc1C(=O)Nc1ccc(OC(F)(F)F)cc1C [compound 1536]
[1]; [7]
  Insecticidal effect (Test Example 3), judged from mortality: A (100)
[2]; [8]
  Insecticidal effect (Test Example 2), judged from mortality: A (100)
[3]
  Insecticidal effect (Test Example 1), judged from mortality: A (100)

## Cc1cc(OC(F)(F)C(F)(Br)C(F)(F)F)ccc1NC(=O)c1cccc(F)c1C(=O)NC(C)C (stereo not drawn) [compound 516]
[1]
  Insecticidal effect on rice leafroller (Test Example 3), judged grade: A (100)
[2]
  Insecticidal effect on common cutworm (Test Example 2), judged grade: A (100)
[3]
  Insecticidal effect on diamondback moth (Test Example 1), judged grade: A (100)

## Cc1cc(OC(F)(F)C(F)C(F)(F)F)ccc1NC(=O)c1c(F)cccc1C(=O)NC(C)C (stereo not drawn) [compound 568]
[1]
  Insecticidal effect on rice leafroller (Test Example 3), judged grade: A (100)
[2]
  Insecticidal effect on common cutworm (Test Example 2), judged grade: C (89-80)
[3]
  Insecticidal effect on diamondback moth (Test Example 1), judged grade: A (100)

## CC(C)NC(=O)c1c(I)cccc1C(=O)Nc1ccc([S+]([O-])C(F)(F)F)cc1 (stereo not drawn) [compound 1002]
[1]; [4]
  Insecticidal effect, Test Example 3: A (100)
[2]; [5]
  Insecticidal effect, Test Example 2: A (100)
[3]; [6]
  Insecticidal effect, Test Example 1: A (100)

## CC(C)NC(=O)c1c(C(=O)Nc2ccc3c(c2)OC(F)C(F)(F)O3)cccc1[N+](=O)[O-] (stereo not drawn) [compound 1146]
[1]; [4]
  Insecticidal effect, Test Example 3: A (100)
[2]; [5]
  Insecticidal effect, Test Example 2: C (89-80)
[3]; [6]
  Insecticidal effect, Test Example 1: A (100)

## Cc1cc(C(F)(F)C(F)(F)F)ccc1NC(=O)c1cccc(OC(F)(F)F)c1C(=O)NC(C)C [compound 1191]
[1]; [4]
  Insecticidal effect, Test Example 3: A (100)
[2]; [5]
  Insecticidal effect, Test Example 2: A (100)
[3]; [6]
  Insecticidal effect, Test Example 1: A (100)

## Cc1cc(OC(F)(F)C(F)Cl)ccc1NC(=O)c1cccc([N+](=O)[O-])c1C(=O)NC(C)C (stereo not drawn) [compound 714]
[1]
  Insecticidal effect on rice leafroller (Test Example 3), judged grade: A (100)
[2]
  Insecticidal effect on common cutworm (Test Example 2), judged grade: A (100)
[3]
  Insecticidal effect on diamondback moth (Test Example 1), judged grade: A (100)

## Cc1cc(OC(F)F)ccc1NC(=O)c1cccc(Cl)c1C(=O)N[C@H](C)c1ccccc1 [compound 1458]
[1]; [7]
  Insecticidal effect (Test Example 3), judged from mortality: A (100)
[2]; [8]
  Insecticidal effect (Test Example 2), judged from mortality: A (100)
[3]
  Insecticidal effect (Test Example 1), judged from mortality: A (100)

## Cc1cc(OC(F)(F)C(F)F)ccc1NC(=O)c1c(I)cccc1C(=O)NC(C)C [compound 453]
[1]
  Insecticidal effect on rice leafroller (Test Example 3), judged grade: A (100)
[2]
  Insecticidal effect on common cutworm (Test Example 2), judged grade: D (79-50)
[3]
  Insecticidal effect on diamondback moth (Test Example 1), judged grade: A (100)

## CC(C)NC(=O)c1cccc(F)c1C(=O)Nc1ccc(C(F)(F)F)cc1Cl [compound 550]
[1]
  Insecticidal effect on rice leafroller (Test Example 3), judged grade: A (100)
[2]
  Insecticidal effect on common cutworm (Test Example 2), judged grade: C (89-80)
[3]
  Insecticidal effect on diamondback moth (Test Example 1), judged grade: A (100)
